What was measured:
[1] = target: T1, LdUfsp (recombinant Ufsp, rLdUfsp) (Leishmania donovani, UniProt E9BRI1); test: FRET cleavage assay with YFP-Ufm1-ECFP; format: biochemical; details: 0.1, 1, 10 µg/ml; 250 nM substrate; pH 7.5, 37 °C, 60 min
T1 construct: gene LdCL_340047700; partial ORF 427-1518 bp (about codons 143-506) in pEXP5-CT-Topo, E. coli BL21-pLysS, native purification; 43 and 39 kDa bands; L. infantum homolog is LinJ.34.3830

[2] = target: T1, LdUfsp (recombinant Ufsp, rLdUfsp); test: biolayer interferometry (Octet, streptavidin sensor); format: binding; details: biotinylated protein immobilised

T1 sequence (E9BRI1 entry or part of it): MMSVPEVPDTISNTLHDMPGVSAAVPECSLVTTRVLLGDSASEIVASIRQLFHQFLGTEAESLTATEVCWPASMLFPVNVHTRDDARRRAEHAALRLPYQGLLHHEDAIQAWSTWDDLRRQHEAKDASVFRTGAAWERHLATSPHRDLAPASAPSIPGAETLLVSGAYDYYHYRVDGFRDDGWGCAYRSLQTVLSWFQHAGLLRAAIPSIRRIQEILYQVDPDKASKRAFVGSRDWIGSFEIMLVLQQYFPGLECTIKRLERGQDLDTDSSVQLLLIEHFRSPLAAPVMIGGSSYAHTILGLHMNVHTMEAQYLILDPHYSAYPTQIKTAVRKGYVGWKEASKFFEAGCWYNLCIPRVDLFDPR

## C[C@@H]1[C@H](O)[C@@H](C)/C=C/C=C/C=C/C=C/C=C/C=C/C=C/[C@H](O[C@@H]2O[C@H](C)[C@@H](O)[C@H](N)[C@@H]2O)C[C@@H]2O[C@](O)(C[C@@H](O)C[C@@H](O)[C@H](O)CC[C@@H](O)C[C@@H](O)CC(=O)O[C@H]1C)C[C@H](O)[C@H]2C(=O)O [Amphotericin B]
[1]
  % Ufm1 processing activity (Δ530, % of 20 mM N-ethyl maleimide): Amphotericin B showed inhibitory effects on the Ufm1 processing activity
[2]
  biolayer interferometry (Octet, streptavidin sensor): Results showed that Amphotericin B can bind to the biotinylated Ufsp protein
